# Measured values from the supplement of paper PMC10307832.
# Experiments:
# Test in all cases: relative viability (nuclei count vs DMSO), 5 days (fraction); higher = more cells survive
# [1] = compound: C1=CC2=C(C=C(C(=C2N=C1)O)N=NC3=CC4=C(C=C3)C=C(C=C4)S(=O)(=O)O)S(=O)(=O)O + Cc1cc(Nc2cc(N3CCN(C)CC3)nc(Sc3ccc(NC(=O)C4CC4)cc3)n2)n[nH]1 [Tozasertib] (partner 0.1 µM)
# Method in brief: (§1)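 Dosing by pin tool came one day after lung cancer cell lines were seeded in 1536-well plates, using either one drug or a fixed anchor-drug dose plus five library-drug doses (not always all listed) in √10 steps. After 5 days, nuclei were counted on 4× images. Relative viability is treated-well nuclei count divided by vehicle-well nuclei count, and values are medians of duplicate plates.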
# AT-7519 + Palbociclib = compound: O=C(NC1CCNCC1)c1n[nH]cc1NC(=O)c1c(Cl)cccc1Cl [AT-7519] + CC(=O)c1c(C)c2cnc(Nc3ccc(N4CCNCC4)cn3)nc2n(C2CCCC2)c1=O [Palbociclib] (partner 0.5 µM)
# Method in brief: as §1
# AT-7519 + Linsitinib = compound: O=C(NC1CCNCC1)c1n[nH]cc1NC(=O)c1c(Cl)cccc1Cl [AT-7519] + C[C@]1(O)C[C@@H](c2nc(-c3ccc4ccc(-c5ccccc5)nc4c3)c3c(N)nccn32)C1 [Linsitinib] (partner 1 µM)
# Method in brief: as §1
# AT-7519 + Navitoclax = compound: O=C(NC1CCNCC1)c1n[nH]cc1NC(=O)c1c(Cl)cccc1Cl [AT-7519] + CC1(C)CCC(c2ccc(Cl)cc2)=C(CN2CCN(c3ccc(C(=O)NS(=O)(=O)c4ccc(N[C@H](CCN5CCOCC5)CSc5ccccc5)c(S(=O)(=O)C(F)(F)F)c4)cc3)CC2)C1 [Navitoclax] (partner 0.5 µM)
# Method in brief: as §1
Cell Line,relative viability ([1]; first compound 0.08 µM),relative viability ([1]; first compound 0.253 µM),relative viability ([1]; first compound 0.8 µM),relative viability ([1]; first compound 2.53 µM),relative viability ([1]; first compound 8 µM),relative viability (AT-7519 + Palbociclib; first compound 0.01 µM),relative viability (AT-7519 + Palbociclib; first compound 0.03162 µM),relative viability (AT-7519 + Palbociclib; first compound 0.3162 µM),relative viability (AT-7519 + Palbociclib; first compound 1 µM),relative viability (AT-7519 + Linsitinib; first compound 0.01 µM),relative viability (AT-7519 + Linsitinib; first compound 0.03162 µM),relative viability (AT-7519 + Linsitinib; first compound 0.3162 µM),relative viability (AT-7519 + Linsitinib; first compound 1 µM),relative viability (AT-7519 + Navitoclax; first compound 0.01 µM),relative viability (AT-7519 + Navitoclax; first compound 0.03162 µM),relative viability (AT-7519 + Navitoclax; first compound 0.3162 µM),relative viability (AT-7519 + Navitoclax; first compound 1 µM)
NCI-H1975,0.772,0.753,0.754,0.736,0.686,0.51,0.599,0.362,0.176,0.917,0.795,0.746,0.172,1.01,1.02,0.87,0.236
CAL-12T,0.29,0.34,0.378,0.327,0.296,0.396,0.471,0.172,0.151,0.755,0.752,0.69,0.314,1.21,1.05,0.855,0.128
NCI-H1623,0.432,0.416,0.458,0.506,0.428,,,,,,,,,,,,
HCC-44,,0.853,0.999,1.03,0.873,0.975,0.961,0.965,0.901,0.677,0.62,0.678,0.543,1.01,0.86,0.997,0.958
EKVX,0.458,0.44,0.34,0.446,0.389,0.498,0.369,0.299,0.375,0.963,0.949,0.928,0.959,0.772,0.881,0.923,0.876
NCI-H1651,0.742,0.727,0.657,0.764,0.562,0.517,0.504,0.547,0.534,1.16,0.963,0.917,0.886,0.983,1.08,0.997,0.882
NCI-H1944,0.263,0.241,0.263,0.241,0.237,0.314,0.322,0.292,0.268,1.16,1.02,1.12,1.13,0.988,1.06,1.14,0.982
NCI-H1703,,,,,,,,,,0.854,0.835,0.379,0.149,0.956,1.01,1.01,0.225
Calu-6,,,,,,,,,,1.05,0.942,1.07,0.772,1.09,0.89,0.901,0.115
EBC-1,,,,,,,,,,0.935,1.01,0.938,0.934,0.368,0.347,0.329,0.159
SW 1573,0.164,0.185,0.187,0.181,0.0943,0.38,0.368,0.212,0.109,0.762,0.664,0.739,0.398,0.921,0.873,0.704,0.224
A-427,0.235,0.216,0.207,0.239,0.252,0.551,0.491,0.467,0.327,1.13,1.12,1.13,0.81,0.973,0.899,1.01,0.599
NCI-H2347,0.59,0.57,0.52,0.741,0.573,0.397,0.44,0.469,0.374,1.08,1.01,0.919,0.793,0.741,0.675,0.745,0.59
NCI-H1355,0.629,0.608,0.627,0.595,0.641,0.348,0.389,0.359,0.589,0.795,0.737,0.79,0.722,0.984,0.873,1.09,0.865
NCI-H358,0.126,0.0956,0.0998,0.103,0.102,0.138,0.139,0.108,0.119,0.733,0.592,0.347,0.157,,,,
PC-3 [JPC-3],0.963,0.848,0.846,0.856,0.864,0.591,0.548,0.508,0.575,0.957,0.974,1.04,1.02,0.754,0.714,0.867,0.934
NCI-H2228,0.264,0.269,0.279,0.233,0.295,0.638,0.642,0.636,0.408,0.618,0.564,0.544,0.312,1.08,0.72,1.04,0.437
HOP-62,0.458,0.381,0.384,0.403,0.363,0.422,0.465,0.489,0.489,0.93,0.859,0.682,1.05,0.824,0.983,1.01,0.923
